# From patent US9067926B2, “Fluoromethyl-5,6-dihydro-4H-[1,3]OXAZINES” (F. Hoffmann-La Roche AG, priority 2012, dated 2015)
# What was measured:
# [1] = molecular target: T1, recombinant human cathepsin E (Homo sapiens, UniProt P14091); assay: Cathepsin E fluorescent substrate kinetic assay; assay type: biochemical; conditions: pH 4.5
# T1 construct: purchased R&D Systems
# T1 sequence (P14091 54-396): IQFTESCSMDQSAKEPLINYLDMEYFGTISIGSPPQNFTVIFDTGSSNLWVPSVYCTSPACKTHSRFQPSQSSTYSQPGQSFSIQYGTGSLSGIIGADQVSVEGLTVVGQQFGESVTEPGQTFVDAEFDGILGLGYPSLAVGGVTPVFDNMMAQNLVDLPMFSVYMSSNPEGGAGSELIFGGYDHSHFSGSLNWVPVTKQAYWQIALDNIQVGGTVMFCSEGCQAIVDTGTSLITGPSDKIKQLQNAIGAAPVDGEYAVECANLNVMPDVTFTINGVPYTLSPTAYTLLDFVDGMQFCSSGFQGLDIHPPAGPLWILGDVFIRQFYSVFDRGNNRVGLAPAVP
# From the text: (§1) Cathepsin D and Cathepsin E Fluorescent Substrate Kinetic Assays
# (§2) The MR121 fluorescence assays described below are based on the fact that MR121 forms a non-fluorescent ground state complex with tryptophan. In solution this formation occurs at millimolar concentrations of tryptophan. The mechanism can be used to design a generic biochemical assay for proteases. […] In absence of protease activity, the substrates remain intact and the MR121 fluorescence is reduced by the high local Trp-concentration. If the substrates are cleaved by the enzymes the MR121 fluorescence is recovered.
# (§3) The fluorescent substrate cathepsin D and cathepsin E kinetic assays were performed at room temperature in 384-well microtiter plates (black with clear flat bottom, non binding surface plates from Corning) in a final volume of 51 μl. The test compounds were serially diluted in DMSO (15 concentrations, 1/3 dilution steps) and 1 μl of diluted compounds were mixed for 10 min with 40 μl of cathepsin D (from human liver, Calbiochem) diluted in assay buffer (100 mM sodium acetate, 0.05% BSA, pH 5.5; final concentration: 200 nM) or with 40 μl of recombinant human cathepsin E (R&D Systems) diluted in assay buffer (100 mM sodium acetate, 0.05% BSA, pH 4.5; final concentration: 0.01 nM). […] The slope in the linear range of the kinetic was calculated and the IC50 of the test compounds were determined using a four parameter equation for curve fitting.
# [2] = molecular target: T2, cathepsin D (from human liver) (Homo sapiens, UniProt P07339); assay: Cathepsin D fluorescent substrate kinetic assay; assay type: biochemical; conditions: pH 5.5
# T2 construct: cathepsin D (from human liver, Calbiochem) diluted in assay buffer; purchased Calbiochem; host or cells: human liver
# From the text: as §1, §2, §3
# CYP2D6 = molecular target: T3, CYP2D6 (Homo sapiens, UniProt P10635); assay: CYP inhibition assay, CYP2D6; assay type: in vitro ADME; conditions: pooled human liver microsomes, dextromethorphan substrate; read-out: CYP IC50 2D6
# T3 construct: 0.2 mg/ml pooled human liver microsomes; from tissue; host or cells: pooled human liver microsomes
# Experimental: (§4) Inhibition of cytochromes P450 (CYPs) 2C9, 2D6 and 3A4 was assessed using human liver microsomes and CYP-selective substrate metabolism reactions. […] Quenched incubates were stored at −20° C. for at least 1 hour before centrifugation (20,000×g, 20 minutes). Supernatants were removed and diluted 1:1 with water prior to analysis using a RapidFire sample injector system and API4000 mass spectrometer. Peak areas for substrate, metabolite and stable-labelled metabolite standard were determined using MS/MS. The peak area ratios between the metabolite generated by the enzymatic reaction and the internal standard were used in subsequent calculations. The percentage of (DMSO) control activity was calculated for each incubate and IC50 values estimated by non-linear regression. Sulfaphenazole, quinidine or ketoconazole were tested in each CYP2C9, CYP2D6 or CYP3A4 inhibition experiment, respectively, to ensure assay sensitivity and reproducibility.
# CYP3A4 = molecular target: T4, CYP3A4 (Homo sapiens, UniProt P08684); assay: CYP inhibition assay, CYP3A4; assay type: in vitro ADME; conditions: pooled human liver microsomes, midazolam substrate; read-out: CYP IC50 3A4
# T4 construct: 0.2 mg/ml pooled human liver microsomes; from tissue; host or cells: pooled human liver microsomes
# Experimental: as §4
# CYP2C9 = molecular target: T5, CYP2C9 (Homo sapiens, UniProt P11712); assay: CYP inhibition assay, CYP2C9; assay type: in vitro ADME; conditions: pooled human liver microsomes, diclofenac substrate; read-out: CYP IC50 2C9
# T5 construct: 0.2 mg/ml pooled human liver microsomes; from tissue; host or cells: pooled human liver microsomes
# Experimental: as §4
# hERG = hERG (Homo sapiens, UniProt Q12809); assay: hERG current measurement (automated patch clamp); assay type: cell-based
# Experimental: The hERG current measurement was performed at an automated patch clamp system following the procedure described in R. E. Martin et al. in Bio org.
# Aβ40 in brain = assay: In vivo inhibition of Aβ40 in brain of wild-type mice; conditions: Mus musculus, po; 10 mg/kg p.o., brain Aβ40 after 4 h, female C57Bl/6J mice; read-out: in vivo effect, Percentage of control @ 10 mg/kg p.o
# Experimental: In Vivo Experiments. […] The test compound was dissolved in 5% EtOH, 10% Solutol and was applied per os at 10 ml/kg. After 4 h the animals were sacrificed and brain and plasma were collected. The brain was cut into halves and immediately frozen on dry ice. Brain was used for measurement of Aβ40 and plasma was used for determination of compound exposure. […] Brain tissue was homogenized in 2% DEA buffer in a Roche […] (20'', 4000 rpm) and subsequently centrifuged for 1 h at 100'000 g. DEA was reduced to 0.2% in 50 mM NaCl and one half of the DEA lysate was passed over an Oasis Solid Phase extraction plate (Waters; Cat.Nr. 186000679) which had been activated with MeOH and equilibrated in dH2O (1 ml each). After washes in 10% and 30% MeOH (1 ml each) the AP-peptides were eluted in 0.8 ml 2% NH4OH in 90% MeOH. […] Aβ40 was determined by an AlphaLISA assay (Perkin Elmer). In a white 96well half-area microplate (Perkin Elmer Cat.Nr. 6005561), 20 μl of the reconstituted sample were mixed with 5 μl biotinylated BAP-24 (specific for C-terminus of Aβ40 (Brockhaus, M.; Grunberg, J.; Rohrig, S.; Loetscher, H.; Wittenburg, N.; Baumeister, R.; Jacobsen, […]. Caspase-mediated cleavage is not required for the activity of presenilins in amyloidogenesis and NOTCH signaling. […] The mix was incubated for 1 h at RT in the dark. Then 20 μl Streptavin-coated Donor Beads (Perkin Elmer Cat. Nr. 6760002, final dilution 1:125) were added and this final mix was incubated in the dark for another 30 min at r.t. before RFU was measured in an AlphaScreen Reader(Perkin Elmer Envision 2104).
# [3] = Detection of glutathione conjugates (GSH); assay type: in vitro ADME, human; parameters: key: NF = in vitro no adduct formation relative to control; conditions: in vitro, relative to control
# From the text: Detection of Glutathione Conjugates (GSH) The assay conditions for the detection of glutathione conjugates follow the procedure described by C. M. Dieckhaus et al. in Chem. Res. Toxicol. 2005, 18, 630-63.
# T2 sequence (P07339 65-412): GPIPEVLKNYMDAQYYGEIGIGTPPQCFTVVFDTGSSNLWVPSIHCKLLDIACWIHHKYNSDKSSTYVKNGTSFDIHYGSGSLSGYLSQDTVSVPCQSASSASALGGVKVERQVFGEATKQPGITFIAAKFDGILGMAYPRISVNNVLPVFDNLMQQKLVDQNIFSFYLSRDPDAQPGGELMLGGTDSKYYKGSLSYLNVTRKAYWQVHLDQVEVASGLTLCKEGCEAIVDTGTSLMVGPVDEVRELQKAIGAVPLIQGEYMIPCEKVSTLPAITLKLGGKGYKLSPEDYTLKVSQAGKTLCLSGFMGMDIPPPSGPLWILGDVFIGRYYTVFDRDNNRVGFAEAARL
# T3 sequence (P10635 whole entry): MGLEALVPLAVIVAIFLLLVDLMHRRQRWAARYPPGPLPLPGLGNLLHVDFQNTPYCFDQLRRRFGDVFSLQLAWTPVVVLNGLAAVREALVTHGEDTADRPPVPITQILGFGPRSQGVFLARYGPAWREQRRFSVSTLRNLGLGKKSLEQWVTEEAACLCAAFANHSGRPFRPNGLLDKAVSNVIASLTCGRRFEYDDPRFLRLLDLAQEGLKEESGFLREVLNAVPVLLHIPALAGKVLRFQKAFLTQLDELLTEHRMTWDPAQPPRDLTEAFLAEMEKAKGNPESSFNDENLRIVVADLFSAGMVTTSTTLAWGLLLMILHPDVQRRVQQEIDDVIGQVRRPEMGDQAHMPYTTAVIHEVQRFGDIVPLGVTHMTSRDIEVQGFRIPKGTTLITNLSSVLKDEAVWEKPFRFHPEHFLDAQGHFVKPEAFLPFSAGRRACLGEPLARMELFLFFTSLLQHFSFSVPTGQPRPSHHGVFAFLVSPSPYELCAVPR
# T4 sequence (P08684 whole entry): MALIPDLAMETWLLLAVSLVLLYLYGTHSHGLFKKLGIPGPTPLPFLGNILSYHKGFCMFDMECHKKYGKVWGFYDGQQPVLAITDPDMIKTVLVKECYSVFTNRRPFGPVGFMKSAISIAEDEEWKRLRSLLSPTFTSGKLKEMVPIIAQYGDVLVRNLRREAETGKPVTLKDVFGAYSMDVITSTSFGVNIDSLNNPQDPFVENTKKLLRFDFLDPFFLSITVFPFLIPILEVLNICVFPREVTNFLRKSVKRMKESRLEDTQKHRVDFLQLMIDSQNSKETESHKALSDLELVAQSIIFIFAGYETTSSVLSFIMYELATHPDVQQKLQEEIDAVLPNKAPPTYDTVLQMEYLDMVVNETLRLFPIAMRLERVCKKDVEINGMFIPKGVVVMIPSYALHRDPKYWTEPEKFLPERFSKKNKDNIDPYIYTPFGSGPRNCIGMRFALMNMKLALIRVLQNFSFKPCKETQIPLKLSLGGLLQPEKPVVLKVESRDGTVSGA
# Chain of hERG (Q12809 whole entry): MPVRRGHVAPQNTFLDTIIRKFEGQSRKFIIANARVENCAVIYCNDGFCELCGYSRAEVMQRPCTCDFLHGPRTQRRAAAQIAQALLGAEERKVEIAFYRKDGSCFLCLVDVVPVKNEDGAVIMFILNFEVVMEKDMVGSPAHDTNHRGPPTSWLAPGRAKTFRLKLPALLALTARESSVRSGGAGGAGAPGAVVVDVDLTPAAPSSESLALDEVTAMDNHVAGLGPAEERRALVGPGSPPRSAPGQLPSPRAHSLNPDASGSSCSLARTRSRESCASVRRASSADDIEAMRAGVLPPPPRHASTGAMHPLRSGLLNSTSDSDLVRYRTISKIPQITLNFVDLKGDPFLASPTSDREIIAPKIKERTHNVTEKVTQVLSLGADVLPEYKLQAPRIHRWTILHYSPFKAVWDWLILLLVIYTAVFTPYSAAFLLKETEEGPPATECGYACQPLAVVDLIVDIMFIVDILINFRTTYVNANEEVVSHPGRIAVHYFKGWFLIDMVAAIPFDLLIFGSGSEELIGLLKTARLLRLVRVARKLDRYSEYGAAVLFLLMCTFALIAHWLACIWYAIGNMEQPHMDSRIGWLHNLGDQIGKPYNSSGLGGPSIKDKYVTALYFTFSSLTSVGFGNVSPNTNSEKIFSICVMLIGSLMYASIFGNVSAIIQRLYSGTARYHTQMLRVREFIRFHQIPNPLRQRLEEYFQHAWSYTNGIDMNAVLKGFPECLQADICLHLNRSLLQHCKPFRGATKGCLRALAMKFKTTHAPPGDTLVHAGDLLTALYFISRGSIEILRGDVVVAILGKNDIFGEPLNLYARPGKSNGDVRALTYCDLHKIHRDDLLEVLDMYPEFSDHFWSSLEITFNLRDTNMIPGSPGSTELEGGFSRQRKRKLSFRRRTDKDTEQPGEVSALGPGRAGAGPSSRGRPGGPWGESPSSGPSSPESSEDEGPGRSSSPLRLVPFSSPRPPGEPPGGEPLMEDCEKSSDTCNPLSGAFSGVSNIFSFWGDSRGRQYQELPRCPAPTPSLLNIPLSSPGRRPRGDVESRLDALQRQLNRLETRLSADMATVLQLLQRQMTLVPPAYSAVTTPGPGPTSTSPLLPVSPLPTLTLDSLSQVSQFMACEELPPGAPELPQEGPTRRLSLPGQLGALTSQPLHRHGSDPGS
# T5 sequence (P11712 whole entry): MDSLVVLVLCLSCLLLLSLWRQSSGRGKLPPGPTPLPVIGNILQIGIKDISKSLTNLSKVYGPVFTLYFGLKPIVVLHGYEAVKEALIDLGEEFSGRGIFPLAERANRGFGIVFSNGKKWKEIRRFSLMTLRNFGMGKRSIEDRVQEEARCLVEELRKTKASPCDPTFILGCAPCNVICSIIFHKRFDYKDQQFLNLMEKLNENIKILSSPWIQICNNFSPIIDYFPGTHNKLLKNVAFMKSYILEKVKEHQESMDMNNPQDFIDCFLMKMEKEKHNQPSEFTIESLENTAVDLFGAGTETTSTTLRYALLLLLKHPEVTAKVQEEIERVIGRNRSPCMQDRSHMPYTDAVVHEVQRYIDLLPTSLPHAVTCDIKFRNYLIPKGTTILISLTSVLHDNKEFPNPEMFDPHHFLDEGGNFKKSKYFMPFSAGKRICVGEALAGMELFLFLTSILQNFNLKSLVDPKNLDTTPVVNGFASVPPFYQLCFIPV
IC50 [1] [µM],IC50 [2] [µM],IC50 (CYP2D6) [µM],IC50 (CYP3A4) [µM],IC50 (CYP2C9) [µM],GSH human (glutathione adduct formation) [3],SMILES,hERG Inhibition @ 10 μM (hERG),response vs control in vivo at 10 mg/kg (Aβ40 in brain) [%]
> 200,> 200,,,,,"N#Cc1ccc(C(=O)Nc2ccc(F)c([C@]3(CF)C[C@@H](C(F)(F)F)OC(N)=N3)c2)nc1 [Example 3, N-(3-((4S,6S)-2-amino-4-(fluoromethyl)-6-(trifluoromethyl)-5,6-dihydro-4H-1,3-oxazin-4-yl)-4-fluorophenyl)-5-cyanopicolinamide]",,
> 200,> 200,16,> 50,> 50,NF,"COc1cnc(C(=O)Nc2ccc(F)c([C@]3(CF)C[C@@H](C(F)(F)F)OC(N)=N3)c2)cn1 [Example 36, N-(3-((4S,6S)-2-Amino-4-(fluoromethyl)-6-(trifluoromethyl)-5,6-dihydro-4H-1,3-oxazin-4-yl)-4-fluorophenyl)-5-methoxypyrazine-2-carboxamide]",7,88
> 200,> 200,24,> 50,> 50,NF,"NC1=N[C@](CF)(c2cc(NC(=O)c3nn(C(F)F)cc3Cl)ccc2F)C[C@@H](C(F)(F)F)O1 [Example 46, N-(3-((4S,6S)-2-Amino-4-(fluoromethyl)-6-(trifluoromethyl)-5,6-dihydro-4H-1,3-oxazin-4-yl)-4-fluorophenyl)-4-chloro-1-(difluoromethyl)-1H-pyrazole-3-carboxamide]",8,61
